In publication PMC11032351, “Epigenetic modulation through BET bromodomain inhibitors as a novel therapeutic strategy for progranulin-deficient frontotemporal dementia” (Scientific Reports, 2024):

System: PGRN protein levels
Assay: PGRN quantification (Jess) in human NPCs
Type: cell-based
Conditions: for increase in PGRN protein levels: 1 µM for 24 h; for increase in PGRN: lysed immediately
Experimental: PGRN capillary gel electrophoresis experiments were performed using Jess (Bio-Techne) and data were processed and analyzed using Compass for Simple Western software (version 6.0). Runs were conducted using EZ Standard Pack 1 12-230 kDa (Bio-Techne PS-ST01EZ-8), 12-230 kDa pre-filled plates (PS-PP03), 12-230 kDa separation module (SMW004), anti-rabbit HRP detection ([…]-001), and total protein detection modules (DM-TP01, biotin labeling reagent 042-973) according to the manufacturer's instructions, and with anti-PGRN primary (Abcam ab208777) diluted 1:50 in milk-free antibody dilution buffer (043-524). […] All intensity quantifications are normalized to the total protein assay quantification unless otherwise indicated. NPCs were cultured normally in 6-well plates as described previously. Upon reaching confluency, DMSO or MLN-4924 (Cayman #15,217, 10 mM stock in DMSO) were diluted 1:5000 into NPC media with growth factors. 1 mL of media was aspirated from the cell cultures, and 1 mL of MLN-4924 or DMSO dilutions were then added to respective wells (final well concentration: 1 μM MLN-4924 in select wells, 0.01% DMSO for all wells). Plates returned to the incubator. […] Plates returned to the incubator. After 4 h, to the indicated wells is directly added 1 μL 2 mM mivebresib (MedChem Express HY-100015) in DMSO for a final concentration of 1 μM, or 1 μL DMSO. All plates were returned to the incubator overnight. The next day, 24 h from the addition of mivebresib, plates were removed from the incubator, and all wells were washed with 2 mL PBS, and then lysed in 300 μL M-PER lysis buffer with protease inhibitors. Cells were allowed to lyse for 15 min at 4 °C with light nutation, and then lysate was transferred to a 1.5-mL Eppendorf tube which was then spun down at 20 k rcf at 4 °C for 10 min. 200 μL of supernatant was then transferred to a fresh, labeled Eppendorf rube, which was then stored at - 20 °C prior to further analysis. Sample concentration was quantified using the BCA assay as described above, and normalized to 250 μg/mL in M-PER lysis buffer prior to PGRN quantification using the Jess. NPCs were cultured normally as described previously. 6-well plates were seeded at 300,000 cells/well in 2 mL of NPC media with EGF, bFGF, and heparin as described above. Cells were allowed to grow to confluency for three nights at 37 °C with 5% CO2. […] These solutions were then diluted 1:10 in NPC media with growth factors containing 0.2% DMSO to make 100 nM compound solutions. Treatment wells were washed with 2 mL PBS prior to addition of 2 mL NPC media with growth factors containing compound (or DMSO only) at indicated concentrations (3 replicates per condition, 6 DMSO replicates). Plates were then allowed to incubate at 37 °C with 5% CO2 for 24 h. After 24 h, cells were removed from the incubator, washed with 1 mL PBS, and then lysed with 500 μL M-PER lysis buffer (Thermo Fisher #78,501) with 1 cOmplete Mini, EDTA-free protease inhibitor added (Sigma-Aldrich#11,836,170,001) per 15 mL lysis buffer. Plates were allowed to nutate at 4 °C for 15 min before transferring the lysate to 1.5 mL Eppendorf tubes, which were then spun down at 20,000 rcf at 4 °C for 10 min. 400 μL of the supernatant was then transferred to fresh 1.5-mL Eppendorf tubes, which were then frozen down at - 80 °C prior to further use. Samples were removed from the - 80 °C and concentrations were determined via BCA assay (Thermo Scientific #23,227) using a pre-diluted BSA standard (Life Technologies #23,208) on a 96-well polystyrene plate (Thermo Fisher #12,565,500). Samples were diluted to 0.25 mg/mL using M-PER lysis buffer prior to PGRN quantification using the Jess. NPCs were cultured as described above, and seeded onto coated 24-well plates at 150,000 cells/well in 1 mL NPC media with growth factors. Plates were allowed to grow to ~ 100% confluency for three nights at 37 °C with 5% CO2. […] Plates were allowed to incubate overnight at 37 °C with 5% CO2 for 24 h. […]

SMILES | increase in PGRN protein levels | further results
Cn1ccc2c(-c3cccnc3Sc3ccc(F)cc3)c[nH]c2c1=O [Compound 84B, 3-(2-((4-fluorophenyl)thio)pyridin-3-yl)-6-methyl-1,6-dihydro-7H-pyrrolo[2,3-c]pyridin-7-one] | significantly enhance PGRN protein levels | 
Cn1cc(-c2cccnc2Oc2ccc(F)cc2)c2cc[nH]c2c1=O [Compound 18A, 4-(2-(4-fluorophenoxy)pyridin-3-yl)-6-methyl-1H-pyrrolo[2,3-c]pyridin-7(6H)-one] | > twofold | 
Cn1cc(-c2cccnc2Sc2ccc(F)cc2)c2cc[nH]c2c1=O [Compound 84A, 4-(2-((4-fluorophenyl)thio)pyridin-3-yl)-6-methyl-1,6-dihydro-7H-pyrrolo[2,3-c]pyridin-7-one] | less substantial response | 
Cn1ccc2c(-c3cccnc3Oc3ccc(F)c(F)c3)c[nH]c2c1=O [Compound 81B, 3-(2-(3,4-difluorophenoxy)pyridin-3-yl)-6-methyl-1,6-dihydro-7H-pyrrolo[2,3-c]pyridin-7-one] | significantly enhance PGRN protein levels | 
Cn1ccc2c(-c3cccnc3Oc3ccc(F)cc3)c[nH]c2c1=O [Compound 18B, 3-[2-(4-fluorophenoxy)pyridin-3-yl]-6-methyl-1,6-dihydro-7H-pyrrolo[2,3-c]pyridin-7-one] | significantly enhance PGRN protein levels | 
Cn1cc(-c2cccnc2Oc2ccc(F)c(F)c2)c2cc[nH]c2c1=O [Compound 81A, 4-(2-(3,4-difluorophenoxy)pyridin-3-yl)-6-methyl-1,6-dihydro-7H-pyrrolo[2,3-c]pyridin-7-one] | > twofold | 
CCS(=O)(=O)Nc1ccc(Oc2ccc(F)cc2F)c(-c2cn(C)c(=O)c3[nH]ccc23)c1 [mivebresib] |  | enhancement of PGRN protein levels (100 nM, 24 h): ~ 120%; enhancement of PGRN protein levels after washout (1 µM for 2 h, then 22 h of incubation post-washout): > twofold; enhancement of PGRN protein levels after washout (1 µM for 8 h, washout, lysis 24 h from compound addition): more pronounced effect; Normalized PGRN (Fold-DMSO) (1 µM mivebresib 24 h, vs matching bar without mivebresib): 1.82 x; Normalized PGRN (Fold-DMSO) (1 µM mivebresib 24 h with 300 nM dBET6): 1.26 x; Normalized PGRN (Fold-DMSO) (1 µM mivebresib 24 h with 1 µM MLN-4924 and 300 nM dBET6): 1.47 x; increase in PGRN (1 µM, 8 h): ~ 1.4 fold; enhancement of PGRN protein levels (1 µM, 24 h): ~140%; increase in PGRN (1 µM, 24 h): ~ 2.7 fold
Cn1cc(-c2cccnc2Nc2ccc(F)cc2)c2cc[nH]c2c1=O [Compound 85A, 4-(2-((4-fluorophenyl)amino)pyridin-3-yl)-6-methyl-1,6-dihydro-7H-pyrrolo[2,3-c]pyridin-7-one] | > twofold | 
Cn1ccc2c(-c3cccnc3Nc3ccc(F)cc3)c[nH]c2c1=O [Compound 85B, 3-(2-((4-fluorophenyl)amino)pyridin-3-yl)-6-methyl-1,6-dihydro-7H-pyrrolo[2,3-c]pyridin-7-one] | unable to upregulate PGRN | 
Cn1ccc2c(-c3cc(F)cnc3Oc3ccc(F)cc3)c[nH]c2c1=O [Compound 86B, 3-(5-fluoro-2-(4-fluorophenoxy)pyridin-3-yl)-6-methyl-1,6-dihydro-7H-pyrrolo[2,3-c]pyridin-7-one] | unable to upregulate PGRN | 
Cn1cc(-c2cc(F)cnc2Oc2ccc(F)cc2)c2cc[nH]c2c1=O [Compound 86A, 4-(5-fluoro-2-(4-fluorophenoxy)pyridin-3-yl)-6-methyl-1,6-dihydro-7H-pyrrolo[2,3-c]pyridin-7-one] | less substantial response | 
Cn1cc(-c2cccnc2Oc2cc(F)cc(F)c2)c2cc[nH]c2c1=O [Compound 82A, 4-(2-(3,5-difluorophenoxy)pyridin-3-yl)-6-methyl-1,6-dihydro-7H-pyrrolo[2,3-c]pyridin-7-one] | > twofold | 
Cn1ccc2c(-c3cccnc3Oc3cc(F)cc(F)c3)c[nH]c2c1=O [Compound 82B, 3-(2-(3,5-difluorophenoxy)pyridin-3-yl)-6-methyl-1,6-dihydro-7H-pyrrolo[2,3-c]pyridin-7-one] | significantly enhance PGRN protein levels | 
